Molecules are shown by their SMILES.

13 compounds from patent US20210009564A1, “CALPAIN MODULATORS AND THERAPEUTIC USES THEREOF” (BLADE THERAPERTICS, INC., priority 2018, published 2021) can be followed below.

One assay addresses T1, Human Calpain 9/NS1 (Homo sapiens, UniProt O14815).
T1 sequence (O14815 1-690): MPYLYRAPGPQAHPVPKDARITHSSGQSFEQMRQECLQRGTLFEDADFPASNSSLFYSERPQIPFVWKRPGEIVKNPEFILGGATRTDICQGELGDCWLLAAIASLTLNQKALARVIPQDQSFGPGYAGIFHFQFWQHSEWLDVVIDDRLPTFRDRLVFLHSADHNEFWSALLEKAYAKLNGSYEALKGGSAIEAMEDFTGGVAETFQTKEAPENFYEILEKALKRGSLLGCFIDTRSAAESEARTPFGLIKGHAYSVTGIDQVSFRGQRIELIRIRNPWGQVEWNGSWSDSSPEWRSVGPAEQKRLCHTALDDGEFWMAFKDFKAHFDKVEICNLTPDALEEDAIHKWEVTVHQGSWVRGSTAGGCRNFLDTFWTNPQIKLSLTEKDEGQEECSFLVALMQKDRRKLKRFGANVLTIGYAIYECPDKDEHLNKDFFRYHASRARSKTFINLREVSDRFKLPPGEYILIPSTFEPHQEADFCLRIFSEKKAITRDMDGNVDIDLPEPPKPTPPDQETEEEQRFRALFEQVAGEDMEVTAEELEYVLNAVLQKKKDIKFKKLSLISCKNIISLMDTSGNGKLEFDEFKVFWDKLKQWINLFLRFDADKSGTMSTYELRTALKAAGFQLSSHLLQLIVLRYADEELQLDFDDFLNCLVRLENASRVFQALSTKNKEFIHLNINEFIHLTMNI
T1 sequence (P04632 1-268 partner): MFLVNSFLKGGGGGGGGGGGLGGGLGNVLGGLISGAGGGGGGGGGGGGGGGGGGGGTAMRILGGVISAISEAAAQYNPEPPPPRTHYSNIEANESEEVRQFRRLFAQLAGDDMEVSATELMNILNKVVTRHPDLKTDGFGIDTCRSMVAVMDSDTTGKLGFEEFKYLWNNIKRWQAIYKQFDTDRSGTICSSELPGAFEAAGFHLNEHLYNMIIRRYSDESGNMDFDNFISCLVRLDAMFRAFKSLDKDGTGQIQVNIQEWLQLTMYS
Nature of the assay: Calpain inhibition, continuous fluorescence (FRET substrate) assay, calpain 9. In kind it is biochemical. To be noted: SensoLyte 520 FRET substrate, 25C. The method, then:
(§1) Calpain 1, 2, and 9 activity and inhibition thereof was assessed by means of a continuous fluorescence assay. The SensoLyte 520 Calpain substrate (Anaspec Inc) was optimized for detecting calpain activity. This substrate contains an internally quenched 5-FAM/QXLTM 520 FRET pair. Calpains 1, 2, and 9 cleave the FRET substrate into two separate fragments resulting in an increase of 5-FAM fluorescence that is proportional to calpain activity Assays were typically setup in black 384-well plates using automated liquid handling as follows. Calpain assay base buffer typically contains 50 mM Tris, pH 7.5, 100 mM NaCl and 1 mM DTT. Inhibitors were serially diluted in DMSO and used to setup 2× mixtures with calpains in the aforementioned buffer. After incubation at ambient temperature (25C), the reaction was initiated by adding a 2× mix of the fluorescent peptide substrate and CaCl2) (required for in-situ calpain activation) in the same buffer. Reaction progress curve data were typically collected for 10 min using excitation/emission wavelengths of 490 nm/520 nm on SpectraMax i3× or the FLIPR-Tetra plate readers (Molecular Devices Inc). Reaction rates were calculated from progress curve slopes typically over 1-5 min. Dose response curves (rate vs. log inhibitor concentration) were typically fit to a 4-parameter logistic function to extract IC50 values.

A further assay addresses T2, Human Calpain 2/NS1 (Homo sapiens, UniProt P17655).
T2 sequence (P17655 1-700): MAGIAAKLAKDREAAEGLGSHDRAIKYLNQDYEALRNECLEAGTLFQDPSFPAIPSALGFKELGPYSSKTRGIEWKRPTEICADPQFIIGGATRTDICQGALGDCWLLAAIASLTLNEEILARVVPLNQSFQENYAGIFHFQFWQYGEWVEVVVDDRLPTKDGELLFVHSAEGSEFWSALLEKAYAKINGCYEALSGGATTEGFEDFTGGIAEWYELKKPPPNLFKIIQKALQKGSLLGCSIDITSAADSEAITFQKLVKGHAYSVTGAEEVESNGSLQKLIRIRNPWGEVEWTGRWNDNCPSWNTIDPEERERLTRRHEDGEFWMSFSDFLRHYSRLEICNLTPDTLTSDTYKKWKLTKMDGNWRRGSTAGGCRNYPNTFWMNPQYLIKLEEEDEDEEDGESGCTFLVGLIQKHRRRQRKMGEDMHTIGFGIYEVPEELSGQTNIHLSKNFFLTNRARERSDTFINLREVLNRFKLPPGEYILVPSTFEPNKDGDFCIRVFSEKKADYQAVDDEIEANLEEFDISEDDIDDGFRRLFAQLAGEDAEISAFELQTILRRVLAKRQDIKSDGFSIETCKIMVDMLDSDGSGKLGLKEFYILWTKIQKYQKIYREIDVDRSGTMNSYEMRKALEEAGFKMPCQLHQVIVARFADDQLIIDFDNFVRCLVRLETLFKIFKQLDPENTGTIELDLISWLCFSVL
T2 sequence (P04632 1-268 partner): T1 sequence (P04632 1-268 partner)
In words: Calpain inhibition, continuous fluorescence (FRET substrate) assay, calpain 2. In kind it is biochemical. To be noted: SensoLyte 520 FRET substrate, 25C. The method, then: as §1

Assay [1] deals with Calpain activity in SH-SY5Y cells. Nature of the assay: SH-SY5Y spectrin breakdown product (SBDP-150) western blot assay. In kind it is cell-based. To be noted: Homo sapiens; SH-SY5Y cells, 25 uM A23187, SBDP-150 western blot; read-out: SH-SY5Y Spectrin IC50. On the technique in general: Immunoblotting shows a protein as a band on a membrane.
A further assay has as its target T3, Human Calpain 1/NS1 (Homo sapiens, UniProt P07384).
T3 sequence (P07384 1-714): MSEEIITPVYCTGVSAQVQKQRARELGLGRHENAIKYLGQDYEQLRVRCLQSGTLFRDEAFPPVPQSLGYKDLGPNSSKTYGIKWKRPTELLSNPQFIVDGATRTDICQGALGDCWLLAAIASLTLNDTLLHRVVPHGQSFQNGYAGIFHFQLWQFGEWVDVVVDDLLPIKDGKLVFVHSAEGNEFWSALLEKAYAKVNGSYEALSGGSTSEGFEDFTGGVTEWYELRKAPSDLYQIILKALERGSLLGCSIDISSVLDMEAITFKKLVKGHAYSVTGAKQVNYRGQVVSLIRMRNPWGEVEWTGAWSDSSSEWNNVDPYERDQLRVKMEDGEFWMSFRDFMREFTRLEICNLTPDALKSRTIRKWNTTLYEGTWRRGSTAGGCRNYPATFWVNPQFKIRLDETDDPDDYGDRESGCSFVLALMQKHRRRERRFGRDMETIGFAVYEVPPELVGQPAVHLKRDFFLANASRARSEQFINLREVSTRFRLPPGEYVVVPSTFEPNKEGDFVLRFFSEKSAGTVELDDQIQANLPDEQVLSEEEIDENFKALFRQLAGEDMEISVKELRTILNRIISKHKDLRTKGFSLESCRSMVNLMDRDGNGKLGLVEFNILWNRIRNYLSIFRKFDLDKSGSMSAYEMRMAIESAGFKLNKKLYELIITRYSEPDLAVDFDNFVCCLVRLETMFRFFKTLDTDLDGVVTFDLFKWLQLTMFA
T3 sequence (P04632 1-268 partner): T1 sequence (P04632 1-268 partner)
Nature of the assay: Calpain inhibition, continuous fluorescence (FRET substrate) assay, calpain 1. The conditions noted are these: SensoLyte 520 FRET substrate, 25C. Format: biochemical. The method, then:
as §1

In assay [2] the test system is Calpain activity in SH-SY5Y cells. In words: SH-SY5Y Suc-LLVY-AMC fluorescence assay. Format: cell-based. To be noted: Homo sapiens; SH-SY5Y cells, 100 uM Suc-LLVY-AMC; read-out: SH-SY5Y + AMC IC50.

As to `NC(=O)C(=O)C(Cc1ccccc1)NC(=O)c1cn(C(F)F)nc1-c1cnc2ccccc2n1` (stereo not shown) [Compound 25, N-(4-AMINO-3,4-DIOXO-1-PHENYLBUTAN-2-YL)-1-(DIFLUOROMETHYL)-3-(QUINOXALIN-2-YL)-1H-PYRAZOLE-4-CARBOXAMIDE], the IC50 (commonly the concentration that inhibits the measured activity by half) at Human Calpain 9/NS1 is < 3 µM; on Human Calpain 2/NS1, < 3 µM; in assay [1], 10 to 25 µM; against Human Calpain 1/NS1, < 3 µM.

On to `Cn1cc(C(=O)NC(Cc2ccccc2)C(=O)C(N)=O)c(-c2cccc3cnn(C)c23)n1` (stereo not shown) [Compound 33, N-(4-AMINO-3,4-DIOXO-1-PHENYLBUTAN-2-YL)-1-METHYL-3-(1-METHYL-1H-INDAZOL-7-YL)-1H-PYRAZOLE-4-CARBOXAMIDE], for which the IC50 against Human Calpain 9/NS1 was < 3 µM; on Human Calpain 2/NS1 it was < 3 µM; in assay [1], > 25 µM; at Human Calpain 1/NS1, 3 to 10 µM.

`Cc1nc(-c2ccccc2F)c(C(=O)NC(Cc2ccc(F)cc2)C(=O)C(N)=O)o1` (stereo not shown) [Compound 73, N-(4-AMINO-1-(4-FLUOROPHENYL)-3,4-DIOXOBUTAN-2-YL)-4-(2-FLUOROPHENYL)-2-METHYLOXAZOLE-5-CARBOXAMIDE]: the IC50 is < 3 µM on Human Calpain 9/NS1, < 3 µM at Human Calpain 2/NS1, < 10 µM in assay [1] and < 3 µM against Human Calpain 1/NS1.

Take `COC(=O)C(=O)C(Cc1ccccc1)NC(=O)c1cn(C)nc1-c1cccc(F)c1` (stereo not shown) [Compound 74, METHYL-3-(3-(3-FLUOROPHENYL)-1-METHYL-1H-PYRAZOLE-4-CARBOXAMIDO)-2-OXO-4-PHENYLBUTANOATE]: the IC50 is < 3 µM at Human Calpain 9/NS1, < 3 µM at Human Calpain 2/NS1, > 25 µM in assay [1] and < 3 µM against Human Calpain 1/NS1.

With `O=C(O)C(=O)C(Cc1ccccc1)NC(=O)c1nsnc1-c1cccc2oc(=O)[nH]c12` (stereo not shown) [Compound 106, 2-OXO-3-4-(2-OXO-2,3-DIHYDROBENZO[D]OXAZOL-4-YL)-1,2,5-THIADIAZOLE-3-CARBOXAMIDO)-4-PHENYLBUTANOIC ACID], the IC50 in assay [2] was 10 to 25 µM; against Human Calpain 9/NS1 it was < 3 µM; at Human Calpain 2/NS1, < 3 µM; against Human Calpain 1/NS1 it was < 3 µM.

With `O=C(O)C(=O)C(Cc1ccccc1)NC(=O)c1nsnc1-c1cccc2c1OC(F)(F)O2` (stereo not shown) [Compound 107, 3-(4-(2,2-DIFLUOROBENZO[D][1,3]DIOXOL-4-YL)-1,2,5-THIADIAZOLE-3-CARBOXAMIDO)-2-OXO-4-PHENYLBUTANOIC ACID], the IC50 in assay [2] is 10 to 25 µM; against Human Calpain 9/NS1, < 3 µM; at Human Calpain 2/NS1, < 3 µM; at Human Calpain 1/NS1 it was < 3 µM.

Regarding `Cc1nc(-c2c(F)cccc2F)c(C(=O)NC(Cc2ccccc2)C(=O)C(=O)O)o1` (stereo not shown) [Compound 108, 3-(4-(2,6-DIFLUOROPHENYL)-2-METHYLOXAZOLE-5-CARBOXAMIDO)-2-OXO-4-PHENYLBUTANOIC ACID], the IC50 in assay [2] is < 10 µM; at Human Calpain 9/NS1, < 3 µM; against Human Calpain 2/NS1, < 3 µM; on Human Calpain 1/NS1, < 3 µM.

For `CN(C)NC(=O)C(=O)C(Cc1ccccc1)NC(=O)c1nsnc1-c1ccccc1` (stereo not shown) [Compound 109, N-(4-(2,2-DIMETHYLHYDRAZINEYL)-3,4-DIOXO-1-PHENYLBUTAN-2-YL)-4-PHENYL-1,2,5-THIADIAZOLE-3-CARBOXAMIDE], the IC50 in assay [2] is 10 to 25 µM; at Human Calpain 9/NS1, < 3 µM; against Human Calpain 2/NS1, < 3 µM; against Human Calpain 1/NS1 it was < 3 µM.

On to `O=C(NC(Cc1ccccc1)C(=O)CO)c1nsnc1-c1ccccc1` (stereo not shown) [Compound 111, N-(4-HYDROXY-3-OXO-1-PHENYLBUTAN-2-YL)-4-PHENYL-1,2,5-THIADIAZOLE-3-CARBOXAMIDE], for which the IC50 in assay [2] was > 25 µM; against Human Calpain 9/NS1, > 10 µM; on Human Calpain 2/NS1, 3 to 10 µM; on Human Calpain 1/NS1 it was 3 to 10 µM.

Regarding `Cn1cc(C(=O)NC(Cc2ccccc2)C(=O)C(N)=O)c(-c2cccc3c2OC(C)(C)O3)n1` (stereo not shown) [Compound 112, N-(4-AMINO-3,4-DIOXO-1-PHENYLBUTAN-2-YL)-3-(2,2-DIMETHYLBENZO[D][1,3]DIOXOL-4-YL)-1-METHYL-1H-PYRAZOLE-4-CARBOXAMIDE], the IC50 in assay [2] is > 25 µM; against Human Calpain 9/NS1 it was < 3 µM; on Human Calpain 2/NS1 it was < 3 µM; on Human Calpain 1/NS1, < 3 µM.

Regarding `CONC(=O)C(=O)C(Cc1ccccc1)NC(=O)c1cccnc1-n1ccc(-c2ccccc2)n1` (stereo not shown) [Compound 113, N-(4-(METHOXYAMINO)-3,4-DIOXO-1-PHENYLBUTAN-2-YL)-2-(3-PHENYL-1H-PYRAZOL-1-YL)NICOTINAMIDE], the IC50 in assay [2] was 10 to 25 µM; against Human Calpain 9/NS1 it was < 3 µM; at Human Calpain 2/NS1, < 3 µM; on Human Calpain 1/NS1 it was < 3 µM.

For `CC(C)n1c(=O)oc2c(-c3nn(C)cc3C(=O)NC(Cc3ccccc3)C(=O)C(N)=O)cccc21` (stereo not shown) [Compound 114, N-(4-AMINO-3,4-DIOXO-1-PHENYLBUTAN-2-YL)-3-(3-ISOPROPYL-2-OXO-2,3-DIHYDROBENZO[D]OXAZOL-7-YL)-1-METHYL-1H-PYRAZOLE-4-CARBOXAMIDE], the IC50 is > 25 µM in assay [2], < 3 µM against Human Calpain 9/NS1, < 3 µM against Human Calpain 2/NS1 and < 3 µM against Human Calpain 1/NS1.

As for `NC(=O)C(=O)C(Cc1ccccc1)NC(=O)c1nsnc1-c1cccc2c1CC(=O)N2` (stereo not shown) [Compound 115, N-(4-AMINO-3,4-DIOXO-1-PHENYLBUTAN-2-YL)-4-(2-OXOINDOLIN-4-YL)-1,2,5-THIADIAZOLE-3-CARBOXAMIDE], the IC50 in assay [2] is < 10 µM; at Human Calpain 9/NS1, < 3 µM; on Human Calpain 2/NS1 it was < 3 µM; at Human Calpain 1/NS1 it was < 3 µM.
